In brackets after ≈: the same amount, converted by molar mass. Positions of bridges follow the written chain, without caps; N, C: chain ends. Non-standard residues stand in square brackets, D forms with d. Residues, ends and D or L forms follow the SMILES beside them. Groups on a side chain read outwards from the residue. *: point of attachment. Palmitoyl(16-(5-tetrazolyl)) = O=C(CCCCCCCCCCCCCCCc1nnn[nH]1)*; Lys(CH2CO2H)2 = N[C@@H](CCCCN(CC(=O)O)CC(=O)O)C(=O)O; X1 = O=C(O)CCCCCCCCCCCCCCCCC(=O)NCCOCCOCCN*; C16 diacid = O=C(O)CCCCCCCCCCCCCCC(=O)*; Hyp = O=C(O)[C@@H]1C[C@@H](O)CN1; hCys = N[C@@H](CCS)C(=O)O; Orn = NCCC[C@H](N)C(=O)O; AEEA = NCCOCCOCC(=O)O
Experiment: physchem
Procedure: From a stock solution in vehicle, either H2O or 10 mM phosphate, containing 1 mg (as weighed) compound per ml, 8-11 aliquots are withdrawn and pH-adjusted individually with HCl/NaOH, to cover the whole pH range.

Row | Compound | solubility (pH 7, Solubility Conc.) [µM] | solubility (pH 7.2, Solubility Conc.) [µM] | solubility (pH 7.3, Solubility Conc.) [µM] | solubility (pH 7.4, Solubility Conc.) [µM] | solubility (pH 7.6, Solubility Conc.) [µM] | solubility (pH 7.9, Solubility Conc.) [µM] | solubility (pH 6.8, Solubility Conc.) [µM] | solubility (pH 7.5, Solubility Conc.) [µM] | solubility (pH 7.8, Solubility Conc.) [µM] | also measured
1 | CC(=O)N[C@H]1CC(=O)NCCC[C@@H](C(=O)N2CCC[C@H]2C(=O)N2CCC[C@H]2C(=O)N[C@@H](CCCNC(=N)N)C(=O)N[C@@H](CC(=O)O)C(=O)N[C@@H](CCCCN(CC(=O)O)CC(=O)O)C(=O)N[C@@H](CCCCNC(=O)COCCOCCNC(=O)CCCCCCCCCCCCCCCc2nnn[nH]2)C(N)=O)NC(=O)[C@H](Cc2c[nH]c3ccccc23)NC(=O)[C@H](CCCNC(=N)N)NC(=O)[C@@H](Cc2ccccc2)NC(=O)[C@H](Cc2c[nH]cn2)NC1=O [Example 2, Ac-c[Asp-His-D-Phe-Arg-Trp-Orn]-Pro-Pro-Arg-Asp-Lys(biscarboxymethyl)-Lys[(2-{2-[16-(tetrazol-5-yl)hexadecanoylamino]ethoxy}ethoxy)acetyl]-NH2] (Ac-DH[dF]RW[Orn]PPRD[Lys(CH2CO2H)2]K([AEEA-Palmitoyl(16-(5-tetrazolyl))])-NH2; lactam 1-6) | 67 (≈ 146 µg/mL) | 172 (≈ 376 µg/mL) | 267 (≈ 584 µg/mL) | 465 (≈ 1020 µg/mL) | 454 (≈ 993 µg/mL) | 458 (≈ 1000 µg/mL) | – | – | – | solubility (pH 5.8, Solubility Conc.): 21 µM (≈ 45.9 µg/mL); solubility (pH 6.4, Solubility Conc.): 26 µM (≈ 56.9 µg/mL)
2 | CC(=O)N[C@H]1CCC(=O)NCCC[C@@H](C(=O)N2C[C@H](O)C[C@H]2C(=O)N2C[C@H](O)C[C@H]2C(=O)N[C@@H](CCCNC(=N)N)C(=O)N[C@@H](CC(=O)O)C(=O)N[C@@H](CCCCN(CC(=O)O)CC(=O)O)C(=O)N[C@@H](CCCCNC(=O)COCCOCCNC(=O)CCCCCCCCCCCCCCCc2nnn[nH]2)C(N)=O)NC(=O)[C@H](Cc2c[nH]c3ccccc23)NC(=O)[C@H](CCCNC(=N)N)NC(=O)[C@@H](Cc2ccccc2)NC(=O)[C@H](Cc2c[nH]cn2)NC1=O [Example 56, Ac-c[Glu-His-D-Phe-Arg-Trp-Orn]-Hyp-Hyp-Arg-Asp-Lys(biscarboxymethyl)-Lys[(2-{2-[16-(tetrazol-5-yl)hexadecanoylamino]ethoxy}ethoxy)acetyl]-NH2] (Ac-EH[dF]RW[Orn][Hyp][Hyp]RD[Lys(CH2CO2H)2]K([AEEA-Palmitoyl(16-(5-tetrazolyl))])-NH2; lactam 1-6) | – | – | – | 169 (≈ 377 µg/mL) | 521 (≈ 1160 µg/mL) | – | 47 (≈ 105 µg/mL) | 395 (≈ 882 µg/mL) | 524 (≈ 1170 µg/mL) | solubility (pH 7.1, Solubility Conc.): 79 µM (≈ 176 µg/mL); solubility (pH 7.7, Solubility Conc.): 408 µM (≈ 911 µg/mL); solubility (pH 8, Solubility Conc.): 392 µM (≈ 875 µg/mL)
3 | CC(=O)N[C@H]1CCCNC(=O)CC[C@@H](C(=O)N2CCC[C@H]2C(=O)N2CCC[C@H]2C(=O)N[C@@H](CCCNC(=N)N)C(=O)N[C@@H](CC(=O)O)C(=O)N[C@@H](CCCCN(CC(=O)O)CC(=O)O)C(=O)N[C@@H](CCCCNC(=O)COCCOCCNC(=O)CCCCCCCCCCCCCCCc2nnn[nH]2)C(N)=O)NC(=O)[C@H](Cc2c[nH]c3ccccc23)NC(=O)[C@H](CCCNC(=N)N)NC(=O)[C@@H](Cc2ccccc2)NC(=O)[C@H](Cc2c[nH]cn2)NC1=O [Example 8, Ac-c[Orn-His-D-Phe-Arg-Trp-Glu]-Pro-Pro-Arg-Asp-Lys(biscarboxymethyl)-Lys[(2-{2-[16-(tetrazol-5-yl)hexadecanoylamino]ethoxy}ethoxy)acetyl]-NH2] (Ac-[Orn]H[dF]RWEPPRD[Lys(CH2CO2H)2]K([AEEA-Palmitoyl(16-(5-tetrazolyl))])-NH2; lactam 1-6) | 91 (≈ 200 µg/mL) | 268 (≈ 590 µg/mL) | 482 (≈ 1060 µg/mL) | 551 (≈ 1210 µg/mL) | 582 (≈ 1280 µg/mL) | – | 44 (≈ 96.8 µg/mL) | 538 (≈ 1180 µg/mL) | 556 (≈ 1220 µg/mL) | solubility (pH 6.5, Solubility Conc.): 35 µM (≈ 77 µg/mL)
4 | CC(=O)N[C@H]1CCCNC(=O)C[C@@H](C(=O)N2CCC[C@H]2C(=O)N2CCC[C@H]2C(=O)N[C@@H](CCCNC(=N)N)C(=O)N[C@@H](CCC(=O)O)C(=O)N[C@@H](CCCCN(CC(=O)O)CC(=O)O)C(=O)N[C@@H](CO)C(=O)N[C@@H](CO)C(=O)NCCOCCOCCNC(=O)CCCCCCCCCCCCCCCCC(=O)O)NC(=O)[C@H](Cc2c[nH]c3ccccc23)NC(=O)[C@H](CCCNC(=N)N)NC(=O)[C@@H](Cc2ccccc2)NC(=O)[C@H](Cc2c[nH]cn2)NC1=O [Example 50, Ac-c[Orn-His-D-Phe-Arg-Trp-Asp]-Pro-Pro-Arg-Glu-Lys(biscarboxymethyl)-Ser-Ser-NH(2-{2-[2-(17-carboxyheptadecanoylamino)ethoxy]ethoxy}ethyl)] (Ac-[Orn]H[dF]RWDPPRE[Lys(CH2CO2H)2]SS-X1; lactam 1-6) | 92 (≈ 204 µg/mL) | 123 (≈ 273 µg/mL) | – | 156 (≈ 347 µg/mL) | – | 208 (≈ 462 µg/mL) | – | 176 (≈ 391 µg/mL) | 212 (≈ 471 µg/mL) | solubility (pH 6.5, Solubility Conc.): 57 µM (≈ 127 µg/mL); solubility (pH 7.7, Solubility Conc.): 197 µM (≈ 438 µg/mL); solubility (pH 8.2, Solubility Conc.): 212 µM (≈ 471 µg/mL)
5 | CC(=O)N[C@H]1CCCNC(=O)C[C@@H](C(=O)N2CCC[C@H]2C(=O)N[C@@H](CO)C(=O)N[C@@H](CO)C(=O)N[C@@H](CO)C(=O)N[C@@H](CCCCN(CC(=O)O)CC(=O)O)C(=O)N[C@@H](CO)C(=O)N[C@@H](CO)C(=O)N[C@@H](CCCCNC(=O)COCCOCCNC(=O)CCCCCCCCCCCCCCC(=O)O)C(N)=O)NC(=O)[C@H](Cc2c[nH]c3ccccc23)NC(=O)[C@H](CCCNC(=N)N)NC(=O)[C@@H](Cc2ccccc2)NC(=O)[C@H](Cc2c[nH]cn2)NC1=O [Example 12, Ac-c[Orn-His-D-Phe-Arg-Trp-Asp]-Pro-Ser-Ser-Ser-Lys(biscarboxymethyl)-Ser-Ser-Lys({2-[2-(15-carboxypentadecanoylamino)ethoxy]ethoxy}acetyl)-NH2] (Ac-[Orn]H[dF]RWDPSSS[Lys(CH2CO2H)2]SSK([AEEA-C16 diacid])-NH2; lactam 1-6) | – | – | – | – | – | – | – | – | – | solubility (pH 4.8, Solubility Conc., pH 4.8, vehicle 10 mM phosphate): 228 µM (≈ 505 µg/mL); solubility (pH 5.8, Solubility Conc., pH 5.8, vehicle 10 mM phosphate): 300 µM (≈ 665 µg/mL); solubility (pH 6.3, Solubility Conc., pH 6.3, vehicle 10 mM phosphate): 400 µM (≈ 886 µg/mL); solubility (pH 6.7, Solubility Conc., pH 6.7, vehicle 10 mM phosphate): 431 µM (≈ 955 µg/mL); solubility (pH 7, Solubility Conc., pH 7.0, vehicle 10 mM phosphate): 426 µM (≈ 944 µg/mL); solubility (pH 7.2, Solubility Conc., pH 7.2, vehicle 10 mM phosphate): 479 µM (≈ 1060 µg/mL); solubility (pH 7.5, Solubility Conc., pH 7.5, vehicle 10 mM phosphate): 405 µM (≈ 897 µg/mL); solubility (pH 7.8, Solubility Conc., pH 7.8, vehicle 10 mM phosphate): 480 µM (≈ 1060 µg/mL); solubility (pH 8.1, Solubility Conc., pH 8.1, vehicle 10 mM phosphate): 439 µM (≈ 973 µg/mL)
6 | CC(=O)N[C@H]1CCCNC(=O)C[C@@H](C(=O)N2CCC[C@H]2C(=O)N2CCC[C@H]2C(=O)N[C@@H](CCCNC(=N)N)C(=O)N[C@@H](CC(=O)O)C(=O)N[C@@H](CCCCN(CC(=O)O)CC(=O)O)C(=O)N[C@@H](CCCCNC(=O)COCCOCCNC(=O)CCCCCCCCCCCCCCCc2nnn[nH]2)C(N)=O)NC(=O)[C@H](Cc2c[nH]c3ccccc23)NC(=O)[C@H](CCCNC(=N)N)NC(=O)[C@@H](Cc2ccccc2)NC(=O)[C@H](Cc2c[nH]cn2)NC1=O [Example 17, Ac-c[Orn-His-D-Phe-Arg-Trp-Asp]-Pro-Pro-Arg-Asp-Lys(biscarboxymethyl)-Lys[(2-{2-[16-(tetrazol-5-yl)hexadecanoylamino]ethoxy}ethoxy)acetyl]-NH2] (Ac-[Orn]H[dF]RWDPPRD[Lys(CH2CO2H)2]K([AEEA-Palmitoyl(16-(5-tetrazolyl))])-NH2; lactam 1-6) | – | 297 (≈ 649 µg/mL) | 428 (≈ 936 µg/mL) | 490 (≈ 1070 µg/mL) | – | – | – | – | 470 (≈ 1030 µg/mL) | solubility (pH 5.8, Solubility Conc.): 25 µM (≈ 54.7 µg/mL); solubility (pH 6.7, Solubility Conc.): 45 µM (≈ 98.4 µg/mL); solubility (pH 6.9, Solubility Conc.): 75 µM (≈ 164 µg/mL); solubility (pH 8, Solubility Conc.): 487 µM (≈ 1060 µg/mL)
7 | CC(=O)N[C@H]1CCSSC[C@@H](C(=O)N[C@@H](CO)C(=O)N2CCC[C@H]2C(=O)N[C@@H](CCCCN)C(=O)N[C@@H](CCC(=O)O)C(=O)N[C@@H](CCCCN(CC(=O)O)CC(=O)O)C(=O)N[C@@H](CCCCNC(=O)COCCOCCNC(=O)CCCCCCCCCCCCCCC(=O)O)C(N)=O)NC(=O)[C@H](Cc2c[nH]c3ccccc23)NC(=O)[C@H](CCCNC(=N)N)NC(=O)[C@@H](Cc2ccccc2)NC(=O)[C@H](Cc2c[nH]cn2)NC1=O [Example 60, Ac-c[homoCys-His-D-Phe-Arg-Trp-Cys]-Ser-Pro-Lys-Glu-Lys(biscarboxymethyl)-Lys({2-[2-(15-carboxypentadecanoylamino)ethoxy]ethoxy}acetyl)-NH2] (Ac-[hCys]H[dF]RWCSPKE[Lys(CH2CO2H)2]K([AEEA-C16 diacid])-NH2; disulfide 1-6) | – | – | 459 (≈ 978 µg/mL) | – | 456 (≈ 972 µg/mL) | 450 (≈ 959 µg/mL) | 457 (≈ 974 µg/mL) | – | 461 (≈ 983 µg/mL) | solubility (pH 4, Solubility Conc.): 424 µM (≈ 904 µg/mL); solubility (pH 5.4, Solubility Conc.): 126 µM (≈ 269 µg/mL); solubility (pH 6, Solubility Conc.): 133 µM (≈ 283 µg/mL); solubility (pH 6.2, Solubility Conc.): 171 µM (≈ 364 µg/mL); solubility (pH 6.4, Solubility Conc.): 415 µM (≈ 885 µg/mL)
8 | CC(=O)N[C@H]1CCC(=O)NCCC[C@@H](C(=O)N2CCC[C@H]2C(=O)N2CCC[C@H]2C(=O)N[C@@H](CCCNC(=N)N)C(=O)N[C@@H](CC(=O)O)C(=O)N[C@@H](CCCCN(CC(=O)O)CC(=O)O)C(=O)N[C@@H](CCCCNC(=O)COCCOCCNC(=O)CCCCCCCCCCCCCCCc2nnn[nH]2)C(N)=O)NC(=O)[C@H](Cc2c[nH]c3ccccc23)NC(=O)[C@H](CCCNC(=N)N)NC(=O)[C@@H](Cc2ccccc2)NC(=O)[C@H](Cc2c[nH]cn2)NC1=O [Example 54, Ac-c[Glu-His-D-Phe-Arg-Trp-Orn]-Pro-Pro-Arg-Asp-Lys(biscarboxymethyl)-Lys[(2-{2-[16-(tetrazol-5-yl)hexadecanoylamino]ethoxy}ethoxy)acetyl]-NH2] (Ac-EH[dF]RW[Orn]PPRD[Lys(CH2CO2H)2]K([AEEA-Palmitoyl(16-(5-tetrazolyl))])-NH2; lactam 1-6) | 78 (≈ 172 µg/mL) | – | – | 221 (≈ 486 µg/mL) | 202 (≈ 445 µg/mL) | 217 (≈ 478 µg/mL) | 43 (≈ 94.6 µg/mL) | – | 200 (≈ 440 µg/mL) | solubility (pH 5.5, Solubility Conc.): 22 µM (≈ 48.4 µg/mL); solubility (pH 6.2, Solubility Conc.): 23 µM (≈ 50.6 µg/mL); solubility (pH 7.1, Solubility Conc.): 95 µM (≈ 209 µg/mL)
